“Also recorded” adds a separate entry of the source.
What was measured:
[1] = tested on: NF-κB; assay: NF-κB transcriptional activity in TNFα-induced HeLa cells; type: cell-based; conditions: Homo sapiens, 1 h pre-treatment, then 4 h of 20 ng/mL TNFα, average of three experiments, read-out: IC50, inhibition of NF-κB transcriptional activity
Description: The compounds were tested on HeLa (adenocarcinoma) cells to quantify their ability to inhibit NF-κB transcriptional activity. NF-κB activity was induced in HeLa cells by TNFα, and then the compounds were added to inhibit the induced NF-κB activity. Half maximal inhibitory concentrations (IC50) of several compounds, namely Compound 1, Compound 2 and Compound 12, were determined by dose response studies.
HeLa cells were plated in a 12-well plate (200,000 cells/well) and cultured in Eagle's Minimal Essential medium (EMEM) from Lonza supplemented with 10% heat-inactivated fetal bovine serum (Invitrogen) and 50 μg/mL penicillin/streptomycin (Invitrogen), and were left overnight to attach. Cells were pre-treated with serial diluted (started at 30 µM; 1:3 dilution) compounds for 1 h and then exposed to 20 ng/mL TNFα (Peprotech) for 4 h in serum free media. After the treatment, the cells were washed with PBS (Invitrogen), and lysed with RIPA buffer (Themo Scientific). The transcription activity of NF-κB in the cells was measured by Chemiluminescent Transcription Factor Assay kit (Thermo Scientific Catalog #89859), according to the manufacturer's instruction. Briefly, 1.5 mg/mL of RIPA lysed whole cell extract from each treatment were incubated in a 96-well plate bound with NF-κB biotinylated-consensus sequence. The active NF-κB transcription factor bound to the consensus sequence was incubated with NF-κB p65 primary antibody and then with a secondary HRP-conjugated antibody. A chemiluminescent substrate was added to the wells and the resulting signal was detected using a luminometer. Three separate experiments were analyzed for each concentration of the IC50 curves. XLFit model 205 was used to calculate IC50 curves.
Inhibition of NF-κB transcriptional activity was measured by serial dilutions of Compound 1, Compound 2 and Compound 12 after 1 h of compound pre-treatment followed by 4 h of 20 ng/mL TNFα exposure. Three independent experiments were scored for each concentration, with the average being presented here.

[2] = tested on: Nrf2 pathway; assay: Nrf2 pathway induction in THP-1 cells with or without KEAP1 knockdown (quantitative PCR); type: cell-based, human
Excerpt: THP-1 (human acute monocytic leukemia cells) cells were used to evaluate the effects of Compound 1 on the Nrf2 pathway in an inflammation environment. Nuclear factor (erythroid-derived 2)-like 2 (Nrf2) is an anti-inflammatory transcription factor. Under normal conditions, Nrf2 is kept in the cytoplasm by Kelch like-ECH associated protein 1 (KEAP1), which degrades Nrf2 by ubiquitination. Nrf2 can also move into the nucleus and back into the cytoplasm as a CRM1 cargo. In the current study, Nrf2 was protected from degradation by knocking down KEAP1 with siRNA. Then, KEAP1-depleted cells were treated with TNFα to induce inflammation, and the ability of Compound 1 to reverse inflammation by up-regulation of the Nrf2 pathway was tested.
THP-1 (acute monocytic leukemia) cells were plated in two 10 cm culture dishes (6*10^6 cells/dish) with RPMI-1640 medium (Lonza) supplemented with 10% heat-inactivated fetal bovine serum (Invitrogen) and 2-mercaptoethanol to a final concentration of 0.05 mM. Cells in one dish were transfected with 50 nM of KEAP1 siRNA (Life Technologies, Silencer Select, siRNA ID # s18982) using Lipofectamine RNAiMax (Invitrogen), whereas the cells in the other dish were transfected with 50 nM of control siRNA, Block-iT (Invitrogen). Transfected cells were left for 72 h and the KEAP1 knockdown efficiency was calculated with quantitative PCR using a probe against KEAP1.
Next, the cells from each of the dishes were divided equally into 4 wells in different 6-well plates. One of the wells from each of the plates was pre-treated with 1 μM of Compound 1 for 1 h, followed by 20 ng/mL TNFα for 24 h. The other wells were treated with either 1 μM Compound 1 or 20 ng/mL TNFα or neither for 24 h. Following the treatment, RNA was extracted from the cells using an RNA extraction kit (Qiagen). RNA samples from each treatment group were reverse transcribed and real-time PCR was performed on the corresponding cDNA sequences using probes against Nrf2 and two of its downstream genes, NQO1 and EPHX1. THP-1 cells were transfected with KEAP1 siRNA. 40% knockdown efficiency was achieved. The KEAP1 knockdown cells were treated with either 1 μM of Compound 1 or 20 ng/mL of TNFα or both together for 24 h.

[3] = tested on: diet-induced obesity; assay: Diet-induced obesity (DIO) model in Sprague-Dawley rats; type: in vivo
Description: Male Sprague-Dawley rats of age 2 months were placed on a high fat diet (Research Diets Inc., product code D12492, 60% kcal % fat) for 3 months. A group of age-matched rats were fed normal lab chow (LabDiet 5001, ˜13% kcal % fat), these animals served as controls for DIO group.
At age 4 months, and 2 months into placement of high fat diet, all rats were allocated into 3 groups of N=7 based on equivalent body weights and food intakes. Body weights and food and water intakes were measured at approximately the same time each day. On treatment days, dosing was at approximately 2 hours before lights off.
The DIO control group was treated with vehicle (oral, 10 mL/kg dose volume; 0.5% Pluronic F68 and 0.5% PVP K29/32 in water) on each weekday. The Compound 2 1.5 mg/kg group was orally treated on each weekday throughout the treatment phase (dose 10 mL/kg dose volume; 0.5% Pluronic F68 and 0.5% PVP K29/32 in water). The Compound 2 3 mg/kg group (10 mL/kg dose volume; 0.5% Pluronic F68 and 0.5% PVP K29/32 in water) was orally treated initially once daily on each weekday for week 1, then twice weekly (Monday, Wednesday) for week 2. During treatment weeks 3 and 4, Compound 2 3 mg/kg treatment continued twice weekly, except dosing was on Monday and Thursday.
Prior to the treatment phase, 3 days baseline data were collected. The treatment phase was for 4 weeks. A washout phase of 10 days was also included.
Compound 2 was supplied in powder form. […] Active percentage was adjusted using BEW of 1.437 and prepared by dissolving into 0.5% w/v Pluronic F-68 and 0.5% w/v PVP K-29-32 vehicle solution. The vehicle solution was prepared on a weekly basis while Compound 2 was prepared fresh every 2 days and stored at +4° C. Animals were dosed at a volume of 10 mL/kg. Individual doses were calculated based on the most recent body weights to provide the proper mg/kg/day dosage.

[4] = 1 μM Compound 1 + 20 ng/mL TNFα, 24 h, KEAP1 knockdown
[5] = 1 μM Compound 1 + 20 ng/mL TNFα, 24 h, without KEAP1 knockdown
[6] = 1.5-3 mg/kg oral, 28 day treatment period

| IC50 [1] [nM] | SMILES | increase in NQO1 expression [2, 4] [fold] | increase in Nrf2 expression compared to untreated cells [2, 4] [fold] | increase in NQO1 expression [2, 5] [fold] | increase in Nrf2 mRNA levels [2, 5] [fold] | induction of EPHX1 expression [2, 5] [fold] | EPHX1 mRNA expression ([2]; 1 μM Compound 1, presence or absence of TNFα) | Nrf2 expression ([2]; 1 μM Compound 1 alone, with or without KEAP1 knockdown) | Nrf2 signaling ([2]; 1 μM for 24 hrs in the presence of 20 ng/mL TNFα) | body weight compared to DIO control group [3, 6] | daily food intake compared to DIO control group [3, 6] | water intake [3, 6] | body weight gain (percentage of body weight change from study day 3) compared to DIO controls ([3]; 1.5 and 3 mg/kg, treatment days 7 and 14) | body weight compared to DIO controls ([3]; washout phase) |
| --- | --- | --- | --- | --- | --- | --- | --- | --- | --- | --- | --- | --- | --- | --- |
| 1590 | CC(C)(C)C(=O)NNC(=O)/C=C\n1cnc(-c2cc(C(F)(F)F)cc(C(F)(F)F)c2)n1 [Compound 1, (Z)-3-(3-(3,5-bis(trifluoromethyl)phenyl)-1H-1,2,4-triazol-1-yl)-N′-pivaloylacrylohydrazide] | 4 | 2.5 | 2 | ≤ 3 | 1.5 | up-regulated the expression of EPHX1 | did not have any significant effect | up-regulated Nrf2 signaling |  |  |  |  |  |
| 1220 | O=C(/C=C\n1cnc(-c2cc(C(F)(F)F)cc(C(F)(F)F)c2)n1)NNC(=O)CN1CCOCC1 [Compound 2, (Z)-3-(3-(3,5-bis(trifluoromethyl)phenyl)-1H-1,2,4-triazol-1-yl)-N′-(2-morpholinoacetyl)acrylohydrazide] |  |  |  |  |  |  |  |  | dose-related decrease | dose-related decrease; also recorded: decreases daily food intake in a dose dependent manner | significantly increased water intake | significant reduction in weight gain; also recorded: affects body weight gain at both 1.5 and 3 mg/kg doses | remained lower than DIO controls |
